Results as given in patent publication US8011774B2, “Azo dye, colored composition, heat-sensitive transfer recording ink sheet, heat-sensitive transfer recording method, color toner, inkjet ink and color filter” (Fujifilm Corporation, priority 2006, dated 2011).

Tests used:
Assay type in all cases: physicochemical
[1] = Solubility of dye when preparing ink sheet dye-providing layer coating composition; design: key: A: The dye easily dissolves.; B: The dye dissolves.; C: The dye is sparingly soluble, but dissolves; conditions: dye 5.5 parts, polyvinylbutyral resin, methyl ethyl ketone/toluene (1/1) coating composition
Experimental: As a support, was used a 6 μm thick polyester film, a back surface of which had been subjected to a heat resistant lubricating processing with a 1 μm thick thermosetting acrylic resin (Lumirror (trade name), a product of Toray). On the front surface of the support, the following dye-providing layer-coating composition was coated by a wire bar coating so that a dry thinness of the dye-providing layer became 1 μm. Thus, Ink sheet 1 was prepared.
Solubility of these dyes contained in these ink sheets were evaluated according to the following three grades;
A: The dye easily dissolves.
C: The dye is sparingly soluble, but dissolves.

[2] = Deposition of dye with lapse of time in the ink sheet, examined by eye; design: key: A: No precipitation is observed.; B: Precipitation is slightly observed.; C: Precipitation is apparently observed; conditions: deposition of dye with a lapse of time in the ink sheet
Text: Further, deposition of dyes with a lapse of time in the ink sheet was examined by a native eye, thereby to evaluate based on the following three grades:
A: No precipitation is observed.
B: Precipitation is slightly observed.
C: Precipitation is apparently observed.

[3] = Light stability (light resistance) of transferred dye image under Xenon light; conditions: Xenon light 17,000 lux, 7 days; residual ratio of Status A reflection density 1.0
Experimental: Next, each of the thus image-recorded thermal transfer image-receiving material was exposed to Xenon light (17,000 lux) for 7 days to examine light stability (light resistance) of the dye image. Status A reflection densities after exposure were measured in the portions indicating status A reflection density of 1.0. A stability of the image was evaluated in terms of a residual ratio (percentage) based on the reflection destiny before exposure according to the following three grades:
A: 80% or more, but 100% or less
B: 60% or more, but […]

[4] = Maximum absorption wavelength of absorption spectrum in ethyl acetate solution; conditions: 1×10^−6 mol/L, optical path length 10 mm
Experimental: A mixture of 3.53 g of Intermediate (7a) (0.01 mol), 2.76 g of potassium carbonate (0.02 mol) and dimethylacetamide (15 ml) was stirred at 0° C. To the mixture was gradually dropped 4.23 g (0.03 mol) of methyl iodide. After stirring for 3 hours at room temperature, 50 ml of water was added thereto. After extraction with 50 ml of ethyl acetate, the extracted solution was washed with saturated brine. Then, the extracted solution was concentrated with a rotary evaporator. Thus-obtained residue was purified using a silica gel chromatography (developing solvent: ethyl acetate/hexane=1/4, v/v). A yellow powder of Exemplified compound (7) was obtained. Yield: 3.01 g (82%), Melting Point: 192° C. λmax (ethyl acetate solution) of the Exemplified compound (7) was 442 nm.
Exemplified compounds (1), (5), (8), (9), (10), (13) and (23) were synthesized in the manner described above. In Table 1 shown below, are indicated the maximum absorption wavelength in each of absorption spectra of the thus-obtained Exemplified compounds (1), (5), (8), (9), (10), (13) and (23) in an ethyl acetate solution (Density: 1×10^−6 mol/L, Optical path length: 10 mm) and melting points of these compounds, together with the Exemplified compounds (7) obtained in the Synthesis Examples.

Row | SMILES | Solubility [1] | Precipitation [2] | Light resistance [3] | Maximum absorption wavelength [4] [nm]
1 | CCN(CCOc1ccc(C2CCCCC2)cc1)c1ccc(C=C(C#N)C#N)cc1 [Dye for Comparison 3, reference compound] | A | A | C (less than 60%) | 
2 | Cc1nn(C)c2c(/N=N/c3nc4ccccc4n3C)c(C(C)(C)C)nn12 [Dye (14)] | A | A | A (80% or more, but 100% or less) | 
3 | CCSc1nnc(N=Nc2c(C(C)(C)C)nn3c(C(C)C)n[nH]c23)s1 [Dye for Comparison 1, reference compound] | B | B | B (60% or more, but less than 100%) | 
4 | CC(C)c1nn(C)c2c(/N=N/c3c(C#N)c(C(C)(C)C)nn3C)c(C(C)(C)C)nn12 [Dye (10)] | A | A | A (80% or more, but 100% or less) | 443
5 | Cc1nn(C)c2c(N=Nc3c(C#N)c(C(C)(C)C)nn3C)c(C(C)(C)C)nn12 [Dye (7)] | A | A | A (80% or more, but 100% or less) | 442
6 | CCn1nc(C(C)(C)C)c(C#N)c1/N=N/c1c(C(C)(C)C)nn2c(C)nn(CC)c12 [Dye (8)] | A | A | A (80% or more, but 100% or less) | 441
7 | CCSc1nnc(/N=N/c2c(C(C)(C)C)nn3c(C(C)C)nn(CC)c23)s1 [Dye (23)] | A | A | A (80% or more, but 100% or less) | 449

The remaining lines, values ahead:

Row | Solubility [1] | Precipitation [2] | Light resistance [3] | Maximum absorption wavelength [4] [nm] | SMILES
8 | A | A | A (80% or more, but 100% or less) | 434 | Cc1nn2nc(C(C)(C)C)c(N=Nc3c(C#N)c(C(C)(C)C)nn3C)c2n1C [Dye (1)]
9 | A | A | A (80% or more, but 100% or less) | 441 | CCc1nn(C)c2c(/N=N/c3c(C#N)c(C(C)(C)C)nn3C)c(C(C)(C)C)nn12 [Dye (9)]
10 | A | A | A (80% or more, but 100% or less) |  | CCSc1nnc(/N=N/c2c(C(C)(C)C)nn3nc(C(C)C)n(C)c23)s1 [Dye (28)]
11 |  |  |  | 471 | Cc1nsc(/N=N/c2c(C(C)(C)C)nn3c(C(C)C)nn(C)c23)c1C#N [Dye (13)]
